Assay results published in patent US20080312435A1, “Imine Compound” (TAISHO PHARMACEUTICAL CO., LTD., priority 2004, published 2008).

system: not given; assay: not given; details: not given

Row | melting point [°C] | Compound
1 | 64 to 66 | COCCn1c(C)c(C)s/c1=N\C(=O)c1cccc(C(F)(F)F)c1
2 | 64 to 66 | CCn1c(C)c(C(C)C)s/c1=N\C(=O)c1cccc(C(F)(F)F)c1F
3 | 140 to 142 | Cc1c(C(C)(C)C)s/c(=N\C(=O)c2cccc(C(F)(F)F)c2)n1C
4 | 56 to 58 | O=C(/N=c1\ccccn1CCC1CC1)c1cccc(C(F)(F)F)c1F
5 | 104.5 to 105.5 | CCOCCn1cccc/c1=N\C(=O)c1cccc(C(F)(F)F)c1F
6 | 158 to 160 | CCn1c(C)c(C(C)(C)C)s/c1=N\C(=O)c1cccc(C(F)(F)F)c1
7 | 149 to 150 | CCn1c(C)c(C(C)(C)C)s/c1=N\C(=O)CC1CCCC1
8 | 63 to 65 | CCn1c(C)c(C(C)(C)C)s/c1=N\C(=O)c1cc(C(F)(F)F)ccc1C
9 | 135 to 137 | Cc1c(C(C)(C)C)s/c(=N\C(=O)c2cccc(C(F)(F)F)c2)n1C(C)C
10 | 94 to 95 | Cc1c(C(C)(C)C)s/c(=N\C(=O)c2ccc(Cl)cc2)n1CC1CC1
11 | 89 to 90 | Cc1c(C(C)(C)C)s/c(=N\C(=O)c2cccc(N3CCCCC3)c2)n1CC1CC1
12 | 126 to 128 | Cc1c(C(C)(C)C)s/c(=N\C(=O)c2cccc(N3CCN(C)CC3)c2)n1CC1CC1
13 | 76 to 78 | Cc1c(C(C)(C)C)s/c(=N\C(=O)c2cccc(C(N)=O)c2)n1CC1CC1
14 | 122 to 123 | COC(=O)c1ccc(C(=O)/N=c2\sc(C(C)(C)C)c(C)n2CC2CC2)cc1
15 | 196 to 197 | Cc1c(C(C)(C)C)s/c(=N\C(=O)c2ccc(C(=O)O)cc2)n1CC1CC1
16 | 88 to 89 | Cc1c(CC(C)(C)C(C)(C)C)s/c(=N\C(=O)c2cc(C(F)(F)F)ccc2F)n1CC1CC1
17 | 84 to 85 | O=C(/N=c1\ccc(C(F)(F)F)cn1CC1CC1)c1cccc(C(F)(F)F)c1
18 | 131 to 132 | COCCNC1=C(C(=O)/N=c2\sc(C(C)(C)C)c(C)n2CC2CC2)CC(C(F)(F)F)C=C1 (centres unmarked)
19 | 131 to 133 | CCN(CC)c1ccc(C(F)(F)F)cc1C(=O)/N=c1\sc(C(C)(C)C)c(C)n1CC1CC1
20 | 138 to 140 | Cc1c(C(C)(C)C)s/c(=N\C(=O)c2cc(C(F)(F)F)ccc2N2CCCCC2)n1CC1CC1

Row | melting point [°C] | Compound
21 | 104 to 106 | CCc1ccnc(C(=O)/N=c2\sc(C(C)(C)C)c(C)n2CC2CC2)c1
22 | 93 to 94 | Cc1c(C(C)(C)C)s/c(=N\C(=O)C(F)(F)C(F)F)n1CC1CC1
23 | 89 to 91 | COc1ccc(OC)c(CC(=O)/N=c2\sc(C(C)(C)C)c(C)n2CC2CC2)c1
24 | 68 to 69 | COCCn1c(C)c(C(C)(C)C)s/c1=N\C(=O)c1ccc(Cl)cc1F
25 | 147 to 149 | Cc1c(C(C)(C)C)s/c(=N\C(=O)c2cccc(C(F)(F)F)c2)n1CCO
26 | 76 to 78 | Cc1c(C(C)(C)C)s/c(=N\C(=O)c2cccc(C(F)(F)F)c2)n1CCN
27 | 138 to 140 | Cc1c(C(=O)N(C)C)s/c(=N\C(=O)c2cccc(C(F)(F)F)c2)n1CC1CC1
28 | 156 to 158 | Cc1c(C(=O)NCCN2CCOCC2)s/c(=N\C(=O)c2cccc(C(F)(F)F)c2)n1CC1CC1
29 | 161 to 162 | Cc1s/c(=N\C(=O)c2cccc(C(F)(F)F)c2)n(CC2CC2)c1-c1ccccc1
30 | 76 to 78 | Cc1c(C(C)C)o/c(=N\C(=O)c2cc(C(F)(F)F)ccc2F)n1CC1CC1
31 | 118 to 120 | COc1ccc(C(F)(F)F)cc1C(=O)/N=c1\oc(C(C)C)c(C)n1CC1CC1
32 | 115 to 116 | O=C(/N=c1\ccc(-c2ccccc2)cn1CC1CC1)c1cccc(C(F)(F)F)c1F
33 | 159 to 160 | O=C(/N=c1\sc2c(n1CC1CC1)CCCC2)c1cccc(C(F)(F)F)c1
34 | 126 to 128 | COc1ccc/c(=N\C(=O)c2cccc(C(F)(F)F)c2F)n1CC1CC1
35 | 69 to 71 | O=C(/N=c1\c(F)cc(F)cn1CC1CC1)c1cccc(C(F)(F)F)c1F
36 | 117.5 to 118 | COc1ccc(C(=O)/N=c2\cc(C)cc(C)n2C)c(OC)c1
37 | 97 to 98 | Cc1c/c(=N\C(=O)c2cccc(C(F)(F)F)c2F)n(CCC2CC2)n1C
38 | 136 to 137 | CCOCCn1/c(=N/C(=O)c2cccc(C(F)(F)F)c2F)cc(C)n1C
39 | 88 to 90 | Cc1c/c(=N\C(=O)c2cccc(C(F)(F)F)c2F)n(CCOC(C)C)n1C
40 | 122 to 124 | Cn1c(C(C)(C)C)c/c(=N\C=O)n1CC1CC1

Row | melting point [°C] | Compound
41 | 113 to 114 | CC(C)c1ccccc1C(=O)/N=c1\cc(C(C)(C)C)n(C)n1CC1CC1
42 | 83 to 85 | Cn1c(C(C)(C)C)c/c(=N\C(=O)c2ccccc2C(F)(F)F)n1CC1CC1
43 | 127 to 128 | Cn1c(C(C)(C)C)c/c(=N\C(=O)c2cccc(Br)c2F)n1CC1CC1
44 | 153 to 155 | Cc1cccc(C(=O)/N=c2\cc(C(C)(C)C)n(C)n2CC2CC2)c1Br
45 | 164 to 165 | Cn1c(C(C)(C)C)c/c(=N\C(=O)c2cc(Cl)ccc2Cl)n1CC1CC1
46 | 121 to 122 | Cn1c(C(C)(C)C)c/c(=N\S(=O)(=O)c2cccc(C(F)(F)F)c2)n1CC1CC1
47 | 76 to 78 | CC(C)(C)c1nn(CC2CC2)/c(=N/C(=O)c2ccc(F)cc2C(F)(F)F)s1
48 | 62 to 63 | CC(C)(C)c1nn(CC2CC2)/c(=N/C(=O)c2cnccc2Cl)s1
49 | 61 to 63 | CC(C)(C)c1nn(CC2CC2)/c(=N/C(=O)c2cc(C(F)(F)F)ccc2F)o1
50 | 64 to 65 | COc1ccc(C(F)(F)F)cc1C(=O)/N=c1\cc(C(C)(C)C)on1CC1CC1
51 | 90 to 92 | CCn1cc(C)s/c1=N\C(=O)c1cccc(C(F)(F)F)c1F
52 | 115 to 117 | Cc1cn(CC2CC2)/c(=N\C(=O)c2cccnc2)s1
53 | 182 to 183 | Cc1s/c(=N\C(=O)c2cccc(C(F)(F)F)c2F)n(C)c1C
54 | 125 to 127 | Cc1s/c(=N\C(=O)c2ccccc2Cl)n(CC2CC2)c1C
55 | 86 to 88 | CC(C)n1cccc/c1=N\C(=O)c1cccc(C(F)(F)F)c1F
56 | 144 to 146 | Cc1s/c(=N\C(=O)c2ccc(F)cc2Br)n(CC2CC2)c1C
57 | 143 to 144 | Cc1s/c(=N\C(=O)c2ccc(F)cc2C(F)(F)F)n(CC2CC2)c1C
58 | 108 to 110 | CC[C@H](C(=O)/N=c1\sc(C)c(C)n1CC1CC1)c1ccccc1 (racemic)

molecular target: T1, human CB2 receptor (Homo sapiens, UniProt P34972); assay: Human CB2 receptor binding inhibition test ([3H]CP-55,940, CHO membrane fractions); details: not given
T1 construct: expressed in transfected cells
From the text: Human CB2 Receptor Binding Inhibition Test
First, cDNA sequence (Munro et al., Nature, 1993, 365, 61-65) encoding a human CB2 receptor was inserted in the forward direction in an animal-cell expression vector, pTARGET Vector (manufactured by Promega) at a region downstream of a CMV promoter. Host cells CHO-DHFR(−) were transfected with the obtained expression vector with the aid of Lipofectamine (manufactured by Invitrogen) to obtain cells capable of stably expressing the CB2 receptor.
After the filtrate was washed with an assay buffer containing 0.1% bovine serum albumin, the radioactivity on the glass filter was measured by a liquid scintillation counter. Nonspecific binding was measured in the presence of 2.0 μM CP-55,940 (manufactured by Tocris). 50% inhibitory concentration (IC50 value) of the test compound for the specific binding was obtained.

T1 sequence (P34972 whole entry): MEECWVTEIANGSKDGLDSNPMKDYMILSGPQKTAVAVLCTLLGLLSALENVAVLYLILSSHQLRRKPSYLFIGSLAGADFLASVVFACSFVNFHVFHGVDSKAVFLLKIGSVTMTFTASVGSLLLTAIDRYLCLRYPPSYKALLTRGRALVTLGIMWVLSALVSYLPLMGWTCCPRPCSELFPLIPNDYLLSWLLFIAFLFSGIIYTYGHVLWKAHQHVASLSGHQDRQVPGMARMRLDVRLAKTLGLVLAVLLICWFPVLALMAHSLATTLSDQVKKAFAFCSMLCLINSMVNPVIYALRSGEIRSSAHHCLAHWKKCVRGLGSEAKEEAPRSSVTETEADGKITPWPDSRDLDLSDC

Row | Compound | IC50 [nM]
59 | Cn1c(C(C)(C)C)c/c(=N\C(=O)c2cccc(C(F)(F)F)c2Cl)n1CC1CC1 [Compound No. 476, N-(5-t-butyl-2-cyclopropylmethyl-1,2-dihydro-1-methylpyrazol-3-ylidene)-2-chloro-3-(trifluoromethyl)benzamide] | 3.9

same assay, conditions: [3H]CP-55,940, membrane fractions of CHO cells stably expressing human CB2 receptor, 25° C., 2 hours; read-out: CB2 IC50 (Inhibition of binding to human CB2 receptor)

Row | Compound | IC50 [nM]
60 | CC(C)(C)c1c/c(=N\C(=O)c2cc(C(F)(F)F)ccc2F)n(CC2CC2)o1 [compound 54] | 18.7
61 | CC(C)(C)c1c/c(=N\C(=O)c2cccc(C(F)(F)F)c2)n(CC2CC2)s1 [compound 57] | 3.8
62 | CCc1ccccc1C(=O)/N=c1\sc(C(C)(C)C)c(C)n1CC [compound 150] | 15
63 | CCn1c(C)c(C(C)(C)C)s/c1=N\C(=O)c1ccc(Cl)cc1OC [compound 168] | 5.4
64 | Cc1c(C(C)(C)C)s/c(=N\C(=O)c2cccc(Cl)c2)n1CC1CC1 [compound 187] | 17
65 | COc1ccccc1C(=O)/N=c1\sc(C(C)(C)C)c(C)n1CC1CC1 [compound 195] | 3.2
66 | Cc1c(C(C)(C)C)s/c(=N\C(=O)c2ccccc2OC(F)(F)F)n1CC1CC1 [compound 197] | 2
67 | Cc1c(C(C)(C)C)s/c(=N\C(=O)c2cccc(C#N)c2)n1CC1CC1 [compound 211] | 12
68 | Cc1c(C(C)(C)C)s/c(=N\C(=O)c2cccc(F)c2F)n1CC1CC1 [compound 222] | 11.3
69 | Cc1c(C(C)(C)C)s/c(=N\C(=O)c2cccc(Cl)c2F)n1CC1CC1 [compound 225] | 3.9
70 | Cc1c(C(C)(C)C)s/c(=N\C(=O)c2cccc(C(F)(F)F)c2F)n1CC1CC1 [compound 250] | 1.1
71 | Cc1c(C(C)(C)C)s/c(=N\C(=O)c2ccc(F)cc2C(F)(F)F)n1CC1CC1 [compound 255] | 0.6
72 | Cc1c(C(C)C)o/c(=N\C(=O)c2cccc(C(F)(F)F)c2F)n1CC1CC1 [compound 369] | 1.4
73 | CCCCn1c(C)c(C(C)(C)C)s/c1=N\S(=O)(=O)c1cccc2ccccc12 [compound 387] | 13.7
74 | Cc1c(C(C)(C)C)s/c(=N\S(=O)(=O)c2cccc(Cl)c2Cl)n1CC1CC1 [compound 399] | 6.8
75 | Cc1c(C(C)(C)C)s/c(=N\S(=O)(=O)c2c(Cl)cccc2Cl)n1CC1CC1 [compound 402] | 15.4
76 | Cc1cc(C)c(S(=O)(=O)/N=c2\sc(C(C)(C)C)c(C)n2CC2CC2)c(C)c1 [compound 410] | 7.1
77 | CC#CCn1c(C)c(C(C)(C)C)s/c1=N\S(=O)(=O)c1cccc2ccccc12 [compound 427] | 5.9
78 | Cc1c(C(=O)/N=c2\cc(C(C)(C)C)n(C)n2CC2CC2)cccc1C(F)(F)F [compound 470] | 10.6
79 | Cn1c(C(C)(C)C)c/c(=N\C(=O)c2cccc(C(F)(F)F)c2F)n1CC1CCC1 [compound 482, N-(5-t-butyl-2-cyclobutylmethyl-1,2-dihydro-1-methylpyrazol-3-ylidene)-2-fluoro-3-(trifluoromethyl)benzamide] | 1.2
80 | Cn1c(C(C)(C)C)c/c(=N\C(=O)c2cccc(C(F)(F)F)c2F)n1CC1CCCC1 [compound 485] | 1.1
